Measurements from patent US20220395500A1, “SMALL MOLECULE ACTIVATORS OF INTERFERON REGULATORY FACTOR 3 AND METHODS OF USE THEREOF” (Neuralexo, Inc., priority 2020, published 2022).

Tests used:
[1] = THP1-Dual cytotoxicity (Cell Titer Glo, ATP); format: cell-based, human; conditions: human, THP1-Dual cells, read-out: Thp1 cytotox CC50
Excerpt: FIG. 9C is a CC50 (50% cytotoxic concentration) graph of AV-C dependent IRF activation in THP1-Dual cells, determined with an 8-point dose response experiment. Cell viability was monitored based on quantitation of ATP present, as an indicator of metabolically active cells, where luminescence is proportional to the amount of ATP present, using Cell-Titer Glo (Promega).
The OTRADI Small Molecule Library of approximately 246,000 diverse compounds (see below for description) was screened using the THP1-Dual based HTS platform described above. All transfer steps in the screen are fully automated, thus reducing variability. Primary screening included a single data point or dose for each molecule. After data normalization was applied for each assay run, “hit” selection was performed on the plates that pass the quality control (QC) criterion. Hits were defined as samples having values above the activity cutoff determined based on noise level of the assay to reduce false positive rates. In the pilot study discussed above this activity value was >3σ above the ISRE mean with the added criteria of NFκB activation being lower than […] from the mean to identify IRF selective compounds. The ratio of ISRE:NFκB activity was also calculated as a selectivity index for prioritizing hit selection. Primary hits underwent secondary screening to determine the 50% effective concentration (EC50) and 50% cytotoxic concentration (CC50) of these agents using an 8-point dose-response curve in the human THP1-Dual cells. Cytotoxicity was measured in the plate using Cell Titer Glo (Promega). Identified candidate compounds were further screened (orthogonal screen) for cross species activity in the validated mouse J774-Dual assay using an 8-point dose-response format to determine EC50 and CC50 values as well as ISRE:NFκB ratios. A general process flow for the experimental design laid out above is depicted at FIG. 12.

[2] = J774-Dual cytotoxicity; format: cell-based, mouse; conditions: mouse, J774-Dual cells, read-out: J774 cytotox CC50
Method: The OTRADI Small Molecule Library of approximately 246,000 diverse compounds (see below for description) was screened using the THP1-Dual based HTS platform described above. All transfer steps in the screen are fully automated, thus reducing variability. Primary screening included a single data point or dose for each molecule. After data normalization was applied for each assay run, “hit” selection was performed on the plates that pass the quality control (QC) criterion. Hits were defined as samples having values above the activity cutoff determined based on noise level of the assay to reduce false positive rates. […] The ratio of ISRE:NFκB activity was also calculated as a selectivity index for prioritizing hit selection. Primary hits underwent secondary screening to determine the 50% effective concentration (EC50) and 50% cytotoxic concentration (CC50) of these agents using an 8-point dose-response curve in the human THP1-Dual cells. Cytotoxicity was measured in the plate using Cell Titer Glo (Promega). Identified candidate compounds were further screened (orthogonal screen) for cross species activity in the validated mouse J774-Dual assay using an 8-point dose-response format to determine EC50 and CC50 values as well as ISRE:NFκB ratios. A general process flow for the experimental design laid out above is depicted at FIG. 12.

CC(=O)N1CCN(c2ccc(NC(=O)c3ccc(OCc4ccccc4)cc3)cc2)CC1 [NA-2]
CC50 ([1]; Human Reporter Cell Line): > 25 µM
CC50 ([2]; Mouse Reporter Cell Line): > 25 µM

O=C(Nc1ccc(N2CCN(C(=O)c3ccco3)CC2)cc1)c1ccccc1F [NA-3]
CC50 ([1]; Human Reporter Cell Line): > 25 µM
CC50 ([2]; Mouse Reporter Cell Line): > 25 µM

O=C(c1ccco1)N1CCN(c2ccccc2)CC1 [NA-5]
CC50 ([1]; Human Reporter Cell Line): > 25 µM
CC50 ([2]; Mouse Reporter Cell Line): > 25 µM

O=C(Nc1ccc(N2CCN(C(=O)c3cccs3)CC2)cc1)c1ccc(Br)o1 [NA-8]
CC50 ([1]; Human Reporter Cell Line): > 25 µM
CC50 ([2]; Mouse Reporter Cell Line): > 25 µM

O=C(Cc1cc(Br)cc(Br)c1)Nc1ccc(N2CCN(C(=O)c3cccs3)CC2)cc1 [NA-9]
CC50 ([1]; Human Reporter Cell Line): > 25 µM
CC50 ([2]; Mouse Reporter Cell Line): > 25 µM

O=C(Nc1ccc(N2CCN(C(=O)c3cccs3)CC2)cc1)c1cccc2ccccc12 [NA-11]
CC50 ([1]; Human Reporter Cell Line): > 25 µM
CC50 ([2]; Mouse Reporter Cell Line): > 25 µM

O=C(Nc1ccc(N2CCN(C(=O)c3cccs3)CC2)cc1)c1ccc2c(c1)OCO2 [NA-12]
CC50 ([1]; Human Reporter Cell Line): > 25 µM
CC50 ([2]; Mouse Reporter Cell Line): > 25 µM

O=C(Nc1ccc(N2CCN(C(=O)c3cccs3)CC2)cc1)c1ccc(Oc2ccccc2)cc1 [NA-26]
CC50 ([1]; Human Reporter Cell Line): > 25 µM
CC50 ([2]; Mouse Reporter Cell Line): > 25 µM

CCOc1ccc(C(=O)Nc2ccc(N3CCN(C(=O)c4cccs4)CC3)c(Cl)c2)cc1Br [NA-27]
CC50 ([1]; Human Reporter Cell Line): > 25 µM
CC50 ([2]; Mouse Reporter Cell Line): > 25 µM

O=C(Nc1ccc(N2CCN(C(=O)c3cccs3)CC2)c(Cl)c1)c1ccc2c(c1)OCCO2 [NA-29]
CC50 ([1]; Human Reporter Cell Line): 65 µM
CC50 ([2]; Mouse Reporter Cell Line): 45.8 µM

O=C(Nc1ccc(N2CCN(C(=O)c3cccnc3)CC2)cc1)c1ccc(OCc2ccccc2)cc1 [NA-36]
CC50 ([1]; Human Reporter Cell Line): > 25 µM
CC50 ([2]; Mouse Reporter Cell Line): > 25 µM

O=C(Nc1ccc(N2CCN(C(=O)c3ccncc3)CC2)cc1)c1ccc(OCc2ccccc2)cc1 [NA-37]
CC50 ([1]; Human Reporter Cell Line): > 25 µM
CC50 ([2]; Mouse Reporter Cell Line): > 25 µM

O=C(Nc1ccc(N2CCN(C(=O)c3cccs3)CC2)cc1)c1cncc(-c2ccccc2)c1 [NA-40]
CC50 ([1]; Human Reporter Cell Line): > 25 µM
CC50 ([2]; Mouse Reporter Cell Line): > 25 µM

O=C(Nc1ccc(N2CCN(C(=O)c3ccc(Cl)cc3)CC2)cc1)c1ccc(OCc2ccccc2)cc1 [NA-45]
CC50 ([1]; Human Reporter Cell Line): 10.7 µM
CC50 ([2]; Mouse Reporter Cell Line): > 25 µM

O=C(Nc1ccc(N2CCN(C(=O)c3cccc(Cl)c3)CC2)cc1)c1ccc(OCc2ccccc2)cc1 [NA-48]
CC50 ([1]; Human Reporter Cell Line): > 25 µM
CC50 ([2]; Mouse Reporter Cell Line): > 25 µM

O=C(NCCC(=O)N1CCN(C(=O)c2cccs2)CC1)c1ccc(OCc2ccccc2)cc1 [NA-54]
CC50 ([1]; Human Reporter Cell Line): > 25 µM
CC50 ([2]; Mouse Reporter Cell Line): > 25 µM

Cc1ccc(Cn2cc(CN3CCN(C(=O)c4cccs4)CC3)nn2)cc1 [NA-55]
CC50 ([1]; Human Reporter Cell Line): > 25 µM
CC50 ([2]; Mouse Reporter Cell Line): > 25 µM

O=C(c1cccs1)N1CCN(Cc2cn(Cc3ccc(Cl)cc3)nn2)CC1 [NA-56]
CC50 ([1]; Human Reporter Cell Line): > 25 µM
CC50 ([2]; Mouse Reporter Cell Line): > 25 µM

COc1cccc(Cn2cc(CN3CCN(C(=O)c4cccs4)CC3)nn2)c1 [NA-57]
CC50 ([1]; Human Reporter Cell Line): > 25 µM
CC50 ([2]; Mouse Reporter Cell Line): > 25 µM

O=C(c1cccs1)N1CCN(Cc2cn(Cc3ccccc3Cl)nn2)CC1 [NA-58]
CC50 ([1]; Human Reporter Cell Line): > 25 µM
CC50 ([2]; Mouse Reporter Cell Line): > 25 µM

CCOc1ccc(C(=O)Nc2ccc(N3CCN(C(=O)c4cccs4)CC3)cc2)cc1[N+](=O)[O-] [NA-65]
CC50 ([1]; Human Reporter Cell Line): > 10 µM
CC50 ([2]; Mouse Reporter Cell Line): > 10 µM

O=C(Nc1ccc(N2CCN(C(=O)c3cccs3)CC2)c(Cl)c1)c1cc([N+](=O)[O-])ccc1N1CCOCC1 [NA-66]
CC50 ([1]; Human Reporter Cell Line): > 10 µM
CC50 ([2]; Mouse Reporter Cell Line): > 10 µM

O=C(Nc1ccc(N2CCN(C(=O)c3cccs3)CC2)cc1)c1ccccc1Br [NA-67]
CC50 ([1]; Human Reporter Cell Line): > 10 µM
CC50 ([2]; Mouse Reporter Cell Line): > 10 µM

O=C(Nc1ccc(N2CCN(C(=O)c3cccs3)CC2)cc1)c1cccc(Oc2ccccc2)c1 [NA-68]
CC50 ([1]; Human Reporter Cell Line): > 10 µM
CC50 ([2]; Mouse Reporter Cell Line): > 10 µM

O=C(c1cccs1)N1CCN(c2ccc(NS(=O)(=O)c3ccc(-c4ccccc4)cc3)cc2)CC1 [NA-69]
CC50 ([1]; Human Reporter Cell Line): > 10 µM
CC50 ([2]; Mouse Reporter Cell Line): > 10 µM

O=C(Nc1ccc(N2CCN(C(=O)c3cccs3)CC2)cc1)c1ccc(N2CCCCC2)c([N+](=O)[O-])c1 [NA-70]
CC50 ([1]; Human Reporter Cell Line): > 10 µM
CC50 ([2]; Mouse Reporter Cell Line): > 10 µM

O=C(Nc1ccc(-c2ccccc2)cc1)Nc1ccc(N2CCN(C(=O)c3cccs3)CC2)cc1 [NA-72]
CC50 ([1]; Human Reporter Cell Line): > 10 µM
CC50 ([2]; Mouse Reporter Cell Line): > 10 µM

O=C(Nc1ccc(N2CCN(C(=O)c3cccs3)CC2)c(Cl)c1)c1ccc(OCc2ccccc2)cc1 [NA-73]
CC50 ([1]; Human Reporter Cell Line): > 10 µM
CC50 ([2]; Mouse Reporter Cell Line): > 10 µM

Cc1cc(NC(=O)c2ccc(OCc3ccccc3)cc2)ccc1N1CCN(C(=O)c2cccs2)CC1 [NA-74]
CC50 ([1]; Human Reporter Cell Line): > 10 µM
CC50 ([2]; Mouse Reporter Cell Line): > 10 µM

Cc1ccc(C(=O)Nc2cc(-c3nc4cc(C(C)C)ccc4o3)ccc2C)cc1C [ND-9]
CC50 ([1]; Human Reporter Cell Line THP1): > 25 µM
CC50 ([2]; Mouse Reporter Cell Line J774): > 25 µM

COc1ccc(C(=O)Nc2cc(-c3nc4cc(C(C)C)ccc4o3)ccc2C)cc1 [ND-10]
CC50 ([1]; Human Reporter Cell Line THP1): > 25 µM
CC50 ([2]; Mouse Reporter Cell Line J774): > 25 µM

Cc1ccc(-c2nc3cc(C(C)C)ccc3o2)cc1NC(=S)NC(=O)c1cccc(F)c1 [ND-11]
CC50 ([1]; Human Reporter Cell Line THP1): > 25 µM
CC50 ([2]; Mouse Reporter Cell Line J774): > 25 µM

Cc1ccc(-c2nc3cc(C(C)C)ccc3o2)cc1NC(=O)c1cc2ccccc2o1 [ND-12]
CC50 ([1]; Human Reporter Cell Line THP1): 47.6 µM
CC50 ([2]; Mouse Reporter Cell Line J774): > 25 µM

COc1cc(C(=O)Nc2cc(-c3nc4cc(C(C)C)ccc4o3)ccc2C)cc(OC)c1OC [ND-14]
CC50 ([1]; Human Reporter Cell Line THP1): > 25 µM
CC50 ([2]; Mouse Reporter Cell Line J774): > 25 µM

COc1ccc(-c2nc3cc(C(C)C)ccc3o2)cc1NC(=O)c1cccc([N+](=O)[O-])c1C [ND-15]
CC50 ([1]; Human Reporter Cell Line THP1): > 25 µM
CC50 ([2]; Mouse Reporter Cell Line J774): > 25 µM

CCOc1ccc(C(=O)Nc2cccc(-c3nc4cc(C(C)C)ccc4o3)c2)cc1[N+](=O)[O-] [ND-17]
CC50 ([1]; Human Reporter Cell Line THP1): > 25 µM
CC50 ([2]; Mouse Reporter Cell Line J774): > 25 µM

COc1ccc(C(=O)Nc2nc(-c3cc4ccccc4oc3=O)cs2)cc1[N+](=O)[O-] [ND-29]
CC50 ([1]; Human Reporter Cell Line THP1): > 25 µM
CC50 ([2]; Mouse Reporter Cell Line J774): > 25 µM

Cc1ccc(C(=O)Nc2nc(C)c(-c3ccccc3)s2)cc1[N+](=O)[O-] [ND-32]
CC50 ([1]; Human Reporter Cell Line THP1): > 25 µM
CC50 ([2]; Mouse Reporter Cell Line J774): > 25 µM

Cc1cc2nc(-c3ccc(C)c(NC(=O)c4cc([N+](=O)[O-])ccc4Cl)c3)oc2cc1C [ND-33]
CC50 ([1]; Human Reporter Cell Line THP1): > 25 µM
CC50 ([2]; Mouse Reporter Cell Line J774): > 25 µM

CCOc1ccc(C(=O)Nc2ccc3oc(-c4cccnc4)nc3c2)cc1[N+](=O)[O-] [ND-44]
CC50 ([1]; Human Reporter Cell Line THP1): > 25 µM
CC50 ([2]; Mouse Reporter Cell Line J774): > 25 µM

COc1ccc(C(=O)Nc2ccc(Cl)c(-c3nc4cc(C)c(C)cc4o3)c2)cc1[N+](=O)[O-] [ND-45]
CC50 ([1]; Human Reporter Cell Line THP1): 12.9 µM
CC50 ([2]; Mouse Reporter Cell Line J774): > 25 µM

Cc1ccc(-c2nc3cc(NC(=O)c4ccc(C)c([N+](=O)[O-])c4)ccc3o2)cc1 [ND-49]
CC50 ([1]; Human Reporter Cell Line THP1): 5.52 µM
CC50 ([2]; Mouse Reporter Cell Line J774): > 25 µM

Cc1cc(C(=O)Nc2cc(-c3nc4ccccc4s3)ccc2Cl)ccc1[N+](=O)[O-] [ND-51]
CC50 ([1]; Human Reporter Cell Line THP1): 22.1 µM
CC50 ([2]; Mouse Reporter Cell Line J774): > 25 µM

Cc1ccc(-c2nc3cc(C(C)C)ccc3o2)cc1NC(=O)c1ccc(Cl)cc1 [ND-53]
CC50 ([1]; Human Reporter Cell Line THP1): > 25 µM
CC50 ([2]; Mouse Reporter Cell Line J774): > 25 µM

Cc1ccc(-c2nc3cc(C(C)C)ccc3o2)cc1NC(=O)c1ccc(F)c([N+](=O)[O-])c1 [ND-54]
CC50 ([1]; Human Reporter Cell Line THP1): 6.84 µM
CC50 ([2]; Mouse Reporter Cell Line J774): > 25 µM

Cc1ccc(C(=O)Nc2cc(C(C)C)ccc2O)cc1[N+](=O)[O-] [ND-55]
CC50 ([1]; Human Reporter Cell Line THP1): > 25 µM
CC50 ([2]; Mouse Reporter Cell Line J774): > 25 µM

Cc1cc2nc(-c3ccc(C)c(Nc4[nH]c(=O)[nH]c(=O)c4[N+](=O)[O-])c3)oc2cc1C [ND-56]
CC50 ([1]; Human Reporter Cell Line THP1): > 25 µM
CC50 ([2]; Mouse Reporter Cell Line J774): > 25 µM
